Measurements as given in US6447782B1, “Lipid extract of the Skeletonema algae” (Parfums Christian Dior, priority 1998, dated 2002).

Tested on: 3′,5′-cAMP phosphodiesterase (PDE)
Assay: Test for inhibitory activity on PDE (hydrolysis of cAMP to AMP, AMP measured by HPLC)
Type: biochemical
Details: reaction time 5 minutes, lipid extract 0.1% in DMSO, theophylline 0.2% in DMSO
Protocol: The principle of the test is based on the hydrolysis of cyclic 3′5′-adenosine monophosphate(cAMP) to adenosine monophosphate (AMP). The formation of AMP is measured by HPLC (high performance liquid chromatography) analysis.
The solutions of the reagents are prepared in 0.05 M Tris-HCl buffer at pH 7.5.
The lipid extracts to be tested are at a concentration of 0.1% in DMSO.
The same experiment is carried out with the reference active product theophylline (H. Kather, A. Scheurer, Effects of different phosphodiesterase inhibitors on the antilipolytic action of insulin in human adipocytes: Horm. Metabol. Res. 19 (1987) 379-381). Likewise, B. B. Fredholm, E. Lindger, Acta pharmacol. et toxicol., 54 (1984), pp. 64-71, “The effect of alkylxanthines and other phosphodiesterase inhibitors on adenosine receptor mediated decrease in lipolysis and cyclic AMP accumulation in rat fat cells” . . . These tests are reference tests for those skilled in the art.
The theophylline tested (SIGMA/Ref. T1633) is at a concentration of 0.2% in DMSO.
The composition of the reaction media is described below. […]
The amount of AMP formed is measured after a reaction time of 5 minutes by calculating the integration area of the AMP peak on the chromatogram produced by the HPLC apparatus (KONTRON S. A.). […]
The amount of AMP due to the action of PDE is measured after a reaction time of 5 minutes. […]

A (%) percentage inhibition of PDE: 35% | Integration area of AMP (DMSO control 40.80): 26.52
SMILES: Cn1c(=O)c2[nH]cnc2n(C)c1=O [Theophylline, theophylline]
